In the CheMixHub viscosity set:

Experiment: xn = mol fraction of the nth substance listed

O=[N+]([O-])[O-].O=[N+]([O-])[O-].[Ca+2] + O
viscosity [mPa·s], 100 kPa
Conditions | x1 = 0.00575 | x1 = 0.006 | x1 = 0.01 | x1 = 0.01205 | x1 = 0.0267 | x1 = 0.03 | x1 = 0.04 | x1 = 0.04494 | x1 = 0.06819 | x1 = 0.07
298.15 K | 0.963 | 0.964 | 1.052 | 1.051 | 1.384 | 1.328 | 1.955 | 1.954 | 3.256 | 3.257
323.15 K | 0.599 | 0.599 | 0.66 | 0.66 | 0.852 | 0.844 | 1.207 | 1.204 | 1.928 | 1.931

C[N+](C)(C)C.NCC(=O)[O-] + OCCO
303 K, 101 kPa
Conditions | viscosity [mPa·s]
x1 = 0.044 | 46.5
x1 = 0.095 | 75.2
x1 = 0.15 | 103.9
x1 = 0.22 | 138
x1 = 0.39 | 185.9
x1 = 0.63 | 251.5

N#Cc1ccccc1 + CCCCCO
viscosity [mPa·s], 101.33 kPa
Conditions | x1 = 0.1034 | x1 = 0.1623 | x1 = 0.3038 | x1 = 0.387 | x1 = 0.5033 | x1 = 0.6086 | x1 = 0.7205 | x1 = 0.82 | x1 = 0.9162
303.15 K | 2.395 | 2.152 | 1.737 | 1.558 | 1.374 | 1.262 | 1.182 | 1.153 | 1.14
308.15 K | 2.116 | 1.925 | 1.565 | 1.406 | 1.244 | 1.162 | 1.097 | 1.079 | 1.064
313.15 K | 1.895 | 1.723 | 1.412 | 1.283 | 1.14 | 1.07 | 1.017 | 1.01 | 0.993

N[C@@H](CCC(=O)O)C(=O)O + O
viscosity [mPa·s], 101.3 kPa
Conditions | x1 = 0.000207 | x1 = 0.00038 | x1 = 0.00043 | x1 = 0.000542 | x1 = 0.000801 | x1 = 0.000855 | x1 = 0.0012
293.15 K | 1.004 | 1.012 | 1.007 | 1.011 | 1.021 | 1.019 | 1.027
298.15 K | 0.8955 | 0.9049 | 0.8994 | 0.9025 | 0.9086 | 0.9109 | 0.9194
303.15 K | 0.8079 | 0.8164 | 0.8109 | 0.8148 | 0.8178 | 0.8217 | 0.8279
313.15 K | 0.6741 | 0.6803 | 0.6764 | 0.6779 | 0.6818 | 0.6849 | 0.6903
323.15 K | 0.5787 | 0.5857 | 0.581 | 0.5826 | 0.5849 | 0.5864 | 0.5895

N#Cc1ccccc1 + c1ccccc1
Conditions | viscosity [mPa·s]
298.15 K, 101 kPa, x1 = 0.2 | 0.688
298.15 K, 101 kPa, x2 = 0.1681 | 1.098
298.15 K, 101 kPa, x2 = 0.3126 | 0.9985
298.15 K, 101 kPa, x2 = 0.4381 | 0.9214
298.15 K, 101 kPa, x2 = 0.5481 | 0.8456
298.15 K, 101 kPa, x2 = 0.6453 | 0.7942
298.15 K, 101 kPa, x2 = 0.7318 | 0.7145
298.15 K, 101 kPa, x2 = 0.8093 | 0.6845
298.15 K, 101 kPa, x2 = 0.8792 | 0.6157
298.15 K, 101 kPa, x2 = 0.9423 | 0.5987
303.15 K, 101 kPa, x2 = 0.1133 | 1.013
303.15 K, 101 kPa, x2 = 0.1681 | 0.9758
303.15 K, 101 kPa, x2 = 0.2233 | 0.932
303.15 K, 101 kPa, x2 = 0.3126 | 0.9251
303.15 K, 101 kPa, x2 = 0.3302 | 0.866
303.15 K, 101 kPa, x2 = 0.434 | 0.812
303.15 K, 101 kPa, x2 = 0.4381 | 0.8542
303.15 K, 101 kPa, x2 = 0.5349 | 0.766
303.15 K, 101 kPa, x2 = 0.5481 | 0.8025
303.15 K, 101 kPa, x2 = 0.633 | 0.7225
303.15 K, 101 kPa, x2 = 0.6453 | 0.7256
303.15 K, 101 kPa, x2 = 0.7285 | 0.68
303.15 K, 101 kPa, x2 = 0.7318 | 0.6953
303.15 K, 101 kPa, x2 = 0.8093 | 0.6245
303.15 K, 101 kPa, x2 = 0.8214 | 0.6395
303.15 K, 101 kPa, x2 = 0.8792 | 0.5946
303.15 K, 101 kPa, x2 = 0.9119 | 0.5996
303.15 K, 101 kPa, x2 = 0.9423 | 0.5742
303.15 K, 101.32 kPa, x2 = 0.1527 | 1.001
303.15 K, 101.32 kPa, x2 = 0.3165 | 0.902
303.15 K, 101.32 kPa, x2 = 0.4174 | 0.831
303.15 K, 101.32 kPa, x2 = 0.5485 | 0.765
303.15 K, 101.32 kPa, x2 = 0.6569 | 0.715
303.15 K, 101.32 kPa, x2 = 0.7859 | 0.659
303.15 K, 101.32 kPa, x2 = 0.9145 | 0.607
308.15 K, 101 kPa, x1 = 0.2 | 0.605
308.15 K, 101 kPa, x2 = 0.1681 | 0.9852
308.15 K, 101 kPa, x2 = 0.3126 | 0.9457
308.15 K, 101 kPa, x2 = 0.4381 | 0.8352
308.15 K, 101 kPa, x2 = 0.5481 | 0.7648
308.15 K, 101 kPa, x2 = 0.6453 | 0.7054
308.15 K, 101 kPa, x2 = 0.7318 | 0.6582
308.15 K, 101 kPa, x2 = 0.8093 | 0.6214
308.15 K, 101 kPa, x2 = 0.8792 | 0.5743
308.15 K, 101 kPa, x2 = 0.9423 | 0.5621
313.15 K, 101 kPa, x2 = 0.1681 | 0.9756
313.15 K, 101 kPa, x2 = 0.3126 | 0.9143
313.15 K, 101 kPa, x2 = 0.4381 | 0.8215
313.15 K, 101 kPa, x2 = 0.5481 | 0.7236
313.15 K, 101 kPa, x2 = 0.6453 | 0.6974
313.15 K, 101 kPa, x2 = 0.7318 | 0.6318
313.15 K, 101 kPa, x2 = 0.8093 | 0.5845
313.15 K, 101 kPa, x2 = 0.8792 | 0.5413
313.15 K, 101 kPa, x2 = 0.9423 | 0.5128
318.15 K, 101 kPa, x1 = 0.2 | 0.532
323.15 K, 101 kPa, x1 = 0.2 | 0.498
